From ChEMBL document CHEMBL3137667, “[Drug-induced liver injury; fourteenth updated edition of the bibliographic database of liver injuries and related drugs]” (Gastroenterol Clin Biol, 2004) come the findings set out here.

For series [1] the following is noted: human.
Series [2] can be described thus: Highest frequency of moderate liver toxicity observed during clinical trials, expressed as a percentage. [column '% BIOL' in source]. The settings on record: human.
The conditions of series [3]: human. This is another data set of the same source.
The conditions of series [4]: human. The source holds these as a separate data set.
For series [5] the following is noted: human, serum, 4383 h.
For series [6] the following is noted: human, serum.
For series [7] the following is noted: human. This is another data set of the same source.
For series [8] the following is noted: human, serum. This is another data set of the same source.
For series [9] the following is noted: human. This is another data set of the same source.
The conditions of series [10]: human. This is another data set of the same source.
For series [11] the following is noted: human. This is another data set of the same source.
Series [12] in a line: Highest frequency of acute liver toxicity observed during clinical trials, expressed as a percentage. [column '% AIGUE' in source]. The settings on record: human.
For series [13] the following is noted: human. The source holds these as a separate data set.
The conditions of series [14]: human. This is another data set of the same source.
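For Hepatotoxicity (association with vascular disease) in this document: count of indexed literature references reporting vascular liver injury in humans, e.g. peliosis hepatitis, hepatic veno-occlusive disease or Budd-Chiari syndrome.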
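For Hepatotoxicity (benign tumour) in this document: value is a count of indexed literature references citing a benign tumour confirmed by histopathology.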
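For Hepatotoxicity (choleostasis) in this document: human cholestatic liver injury, shown by histopathology or by peak ALT or AST elevation over alkaline phosphatase ratio below 2, value counts indexed literature reports.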
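For Hepatotoxicity (chronic liver disease) in this document: chronic liver injury confirmed by histopathology or persistently raised serum aminotransferase activity beyond 6 months, value given as the count of indexed literature references.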
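For Hepatotoxicity (cirrhosis) in this document: value is a count of indexed literature references reporting cirrhosis confirmed by histopathology.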
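For Hepatotoxicity (cytolytic) in this document: human cytolytic liver injury, shown by histopathology or by a ratio above 5 of peak ALT or AST elevation to alkaline phosphatase elevation, value counts indexed references.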
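For Hepatotoxicity (granulomatous hepatitis) in this document: value is a count of indexed literature references reporting granulomatous liver disease confirmed by histopathology.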
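For Hepatotoxicity (malignant tumour) in this document: malignant tumour confirmed by histopathology, value gives the count of indexed literature references reporting it.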
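For Hepatotoxicity (severe hepatitis) in this document: human clinical data: severe hepatitis, meaning potentially life-threatening liver failure or clinically observed cases, the value counts how many indexed literature references report it.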
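For Hepatotoxicity (steatosis) in this document: steatosis confirmed by histopathology, value is the count of indexed references.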

For the compound `CCN[C@@H]1C[C@H](N)[C@@H](O[C@H]2OC(CN)=CC[C@H]2N)[C@H](O)[C@H]1O[C@H]1OC[C@](C)(O)[C@H](NC)[C@H]1O` [NETILMICIN], in series [1], the “Hepatotoxicity (benign tumour)” value is on record as 0. In addition, the “Hepatotoxicity (moderate)” value is given as 29.4% in series [2] and 5 in [6]. For the same compound, the “Hepatotoxicity (granulomatous hepatitis)” value in [3] stood at 0. For the same compound, the “Hepatotoxicity (severe hepatitis)” value in series [4] was 0. Besides, in series [5], the “Hepatotoxicity (chronic liver disease)” value came to 0. Moreover, the “Hepatotoxicity (choleostasis)” value in [7] amounted to 0. The results for the “Hepatotoxicity (acute)” value in [8] and in series [12] were 0 and 0%, respectively. Moreover, in series [9], the “Hepatotoxicity (cirrhosis)” value is listed as 0. For the same compound, the “Hepatotoxicity (steatosis)” value in [10] was 0. For the same compound, in [11], the “Hepatotoxicity (malignant tumour)” value amounted to 0. Besides, in [13], the “Hepatotoxicity (cytolytic)” value worked out at 0. Further, the “Hepatotoxicity (association with vascular disease)” value in series [14] is recorded as 0.
`O=C(OCC(COC(=O)c1cccnc1)(COC(=O)c1cccnc1)COC(=O)c1cccnc1)c1cccnc1` [NICERITROL]: the “Hepatotoxicity (benign tumour)” value in series [1] is 0. The “Hepatotoxicity (moderate)” value stood at 5% in [2] and 1 in series [6]. Besides, the “Hepatotoxicity (granulomatous hepatitis)” value in series [3] came out at 0. The “Hepatotoxicity (severe hepatitis)” value in series [4] amounted to 0. Moreover, the “Hepatotoxicity (chronic liver disease)” value in [5] stood at 0. Besides, in series [7], the “Hepatotoxicity (choleostasis)” value stood at 0. Besides, the “Hepatotoxicity (acute)” value in series [8] was 0; in [12] it was 0%. Also, the “Hepatotoxicity (cirrhosis)” value in series [9] was determined as 0. Besides, in series [10], the “Hepatotoxicity (steatosis)” value worked out at 0. Further, the “Hepatotoxicity (malignant tumour)” value in [11] is on record as 0. Further, the “Hepatotoxicity (cytolytic)” value in [13] amounted to 0. The “Hepatotoxicity (association with vascular disease)” value in series [14] was determined as 0.
Consider `COC(=O)C1=C(C#N)NC(C)=C(C(=O)OC(C)C)C1c1cccc([N+](=O)[O-])c1` (stereo not drawn) [NILVADIPINE], for which the “Hepatotoxicity (benign tumour)” value in series [1] was determined as 0. In addition, the “Hepatotoxicity (moderate)” value worked out at 6.3% in series [2] and 3 in series [6]. In series [3], the “Hepatotoxicity (granulomatous hepatitis)” value is recorded as 0. Besides, the “Hepatotoxicity (severe hepatitis)” value in series [4] is 0. In series [5], the “Hepatotoxicity (chronic liver disease)” value came to 0. The “Hepatotoxicity (choleostasis)” value in series [7] was determined as 0. For the same compound, the “Hepatotoxicity (acute)” value in [8] worked out at 0; in series [12] it was 0%. Besides, in series [9], the “Hepatotoxicity (cirrhosis)” value turned out to be 0. Moreover, the “Hepatotoxicity (steatosis)” value in [10] turned out to be 0. Besides, the “Hepatotoxicity (malignant tumour)” value in series [11] was found to be 0. The “Hepatotoxicity (cytolytic)” value in series [13] came to 0. Also, the “Hepatotoxicity (association with vascular disease)” value in series [14] turned out to be 0.
On to `Cc1ncc(CNC(=O)N(CCCl)N=O)c(N)n1` [NIMUSTINE], for which the “Hepatotoxicity (benign tumour)” value in series [1] was determined as 0. In addition, the “Hepatotoxicity (moderate)” value was 3.6% in [2] and 2 in series [6]. Further, the “Hepatotoxicity (granulomatous hepatitis)” value in series [3] was determined as 0. The “Hepatotoxicity (severe hepatitis)” value in series [4] is 0. Moreover, the “Hepatotoxicity (chronic liver disease)” value in [5] was determined as 0. Moreover, the “Hepatotoxicity (choleostasis)” value in series [7] stood at 0. The “Hepatotoxicity (acute)” value stood at 0 in series [8] and 0% in series [12]. Moreover, the “Hepatotoxicity (cirrhosis)” value in series [9] was found to be 0. In series [10], the “Hepatotoxicity (steatosis)” value amounted to 0. In addition, in series [11], the “Hepatotoxicity (malignant tumour)” value is given as 0. For the same compound, in series [13], the “Hepatotoxicity (cytolytic)” value is on record as 0. Further, the “Hepatotoxicity (association with vascular disease)” value in series [14] is 0.
On to `O=C1NCCN1c1ncc([N+](=O)[O-])s1` [NIRIDAZOLE], for which the “Hepatotoxicity (benign tumour)” value in [1] is given as 0. In addition, the entries for the “Hepatotoxicity (moderate)” value in [2] and in series [6] were 0% and 2, respectively. For the same compound, the “Hepatotoxicity (granulomatous hepatitis)” value in series [3] is recorded as 0. Moreover, the “Hepatotoxicity (severe hepatitis)” value in series [4] is on record as 0. Also, the “Hepatotoxicity (chronic liver disease)” value in [5] is 0. In [7], the “Hepatotoxicity (choleostasis)” value is 0. Moreover, the “Hepatotoxicity (acute)” value in [8] is given as 0; in series [12] it was 0%. Besides, the “Hepatotoxicity (cirrhosis)” value in [9] stood at 0. Besides, the “Hepatotoxicity (steatosis)” value in series [10] came out at 0. Besides, the “Hepatotoxicity (malignant tumour)” value in series [11] was found to be 0. Further, the “Hepatotoxicity (cytolytic)” value in series [13] is recorded as 0. For the same compound, the “Hepatotoxicity (association with vascular disease)” value in series [14] was found to be 0.
Take `COC(=O)C1=C(C)NC(C)=C(C(=O)OCC(C)C)C1c1ccccc1[N+](=O)[O-]` (stereo not drawn) [NISOLDIPINE]: in [1], the “Hepatotoxicity (benign tumour)” value is recorded as 0. For the same compound, the “Hepatotoxicity (moderate)” value in [2] was determined as 12.5%; in [6], 1. For the same compound, the “Hepatotoxicity (granulomatous hepatitis)” value in [3] came to 0. Further, in series [4], the “Hepatotoxicity (severe hepatitis)” value came to 0. Besides, the “Hepatotoxicity (chronic liver disease)” value in [5] came out at 0. The “Hepatotoxicity (choleostasis)” value in series [7] was 0. For the same compound, the figures for the “Hepatotoxicity (acute)” value in series [8] and in [12] were 0 and 0%, respectively. For the same compound, the “Hepatotoxicity (cirrhosis)” value in series [9] is reported as 0. The “Hepatotoxicity (steatosis)” value in series [10] is given as 0. Moreover, the “Hepatotoxicity (malignant tumour)” value in [11] turned out to be 0. In series [13], the “Hepatotoxicity (cytolytic)” value is given as 0. Besides, the “Hepatotoxicity (association with vascular disease)” value in series [14] was 0.
Turning to `C[C@]1(O)CC[C@H]2[C@@H]3CCC4=CC(=O)CC[C@@H]4[C@H]3CC[C@@]21C` [NORMETHANDRONE], the “Hepatotoxicity (benign tumour)” value in series [1] was determined as 0. Further, the “Hepatotoxicity (moderate)” value was 0% in series [2] and 0 in series [6]. Further, the “Hepatotoxicity (granulomatous hepatitis)” value in series [3] is 0. The “Hepatotoxicity (severe hepatitis)” value in series [4] worked out at 0. Further, the “Hepatotoxicity (chronic liver disease)” value in [5] is listed as 0. Besides, the “Hepatotoxicity (choleostasis)” value in series [7] is given as 1. For the same compound, the “Hepatotoxicity (acute)” value stood at 2 in [8] and 0% in series [12]. Further, the “Hepatotoxicity (cirrhosis)” value in series [9] turned out to be 0. Besides, in series [10], the “Hepatotoxicity (steatosis)” value is 0. In addition, in [11], the “Hepatotoxicity (malignant tumour)” value was 0. Further, the “Hepatotoxicity (cytolytic)” value in [13] is on record as 0. For the same compound, the “Hepatotoxicity (association with vascular disease)” value in series [14] amounted to 0.
Take `COC(=O)C[C@](O)(CCCC(C)(C)O)C(=O)O[C@@H]1C(OC)=C[C@]23CCCN2CCc2cc4c(cc2[C@H]13)OCO4` [OMACETAXINE MEPESUCCINATE]: in series [1], the “Hepatotoxicity (benign tumour)” value is listed as 0. The “Hepatotoxicity (moderate)” value in series [2] was 15%; in series [6], 3. Further, in series [3], the “Hepatotoxicity (granulomatous hepatitis)” value was found to be 0. Further, in series [4], the “Hepatotoxicity (severe hepatitis)” value is on record as 0. Further, the “Hepatotoxicity (chronic liver disease)” value in series [5] was 0. In series [7], the “Hepatotoxicity (choleostasis)” value is given as 0. Moreover, the “Hepatotoxicity (acute)” value in series [8] was determined as 0; in [12], 0%. Further, the “Hepatotoxicity (cirrhosis)” value in [9] is listed as 0. The “Hepatotoxicity (steatosis)” value in [10] is recorded as 0. Moreover, the “Hepatotoxicity (malignant tumour)” value in [11] is listed as 0. In addition, in [13], the “Hepatotoxicity (cytolytic)” value is 0. In addition, the “Hepatotoxicity (association with vascular disease)” value in series [14] came out at 0.
In the case of `CCOC(=O)C1=C[C@@H](OC(CC)CC)[C@H](NC(C)=O)[C@@H](N)C1` [OSELTAMIVIR], the “Hepatotoxicity (benign tumour)” value in series [1] stood at 0. The results for the “Hepatotoxicity (moderate)” value in series [2] and in series [6] were 0% and 0, respectively. Moreover, the “Hepatotoxicity (granulomatous hepatitis)” value in [3] is 0. For the same compound, in series [4], the “Hepatotoxicity (severe hepatitis)” value is 0. For the same compound, in series [5], the “Hepatotoxicity (chronic liver disease)” value amounted to 0. The “Hepatotoxicity (choleostasis)” value in [7] worked out at 0. Further, the “Hepatotoxicity (acute)” value in series [8] was 1; in [12], 0%. Besides, the “Hepatotoxicity (cirrhosis)” value in series [9] came to 0. In addition, the “Hepatotoxicity (steatosis)” value in series [10] is reported as 0. Further, the “Hepatotoxicity (malignant tumour)” value in series [11] is 0. The “Hepatotoxicity (cytolytic)” value in [13] is 0. The “Hepatotoxicity (association with vascular disease)” value in [14] is on record as 0.
Regarding `O=C(O)C(=O)O` [OXALIC ACID], the “Hepatotoxicity (benign tumour)” value in series [1] worked out at 0. Also, the “Hepatotoxicity (moderate)” value turned out to be 0% in [2] and 1 in series [6]. Also, the “Hepatotoxicity (granulomatous hepatitis)” value in series [3] is 0. For the same compound, in series [4], the “Hepatotoxicity (severe hepatitis)” value is given as 0. In series [5], the “Hepatotoxicity (chronic liver disease)” value stood at 0. Besides, in series [7], the “Hepatotoxicity (choleostasis)” value amounted to 0. For the same compound, the “Hepatotoxicity (acute)” value in series [8] is reported as 0; in [12] it was 0%. Moreover, the “Hepatotoxicity (cirrhosis)” value in series [9] is 0. For the same compound, in [10], the “Hepatotoxicity (steatosis)” value is on record as 0. Also, the “Hepatotoxicity (malignant tumour)” value in [11] was found to be 0. Also, the “Hepatotoxicity (cytolytic)” value in series [13] worked out at 0. For the same compound, in [14], the “Hepatotoxicity (association with vascular disease)” value is 0.
For the compound `CC(C)NCC1CCc2cc(CO)c([N+](=O)[O-])cc2N1` (stereo not drawn) [OXAMNIQUINE], the “Hepatotoxicity (benign tumour)” value in series [1] was determined as 0. Besides, the “Hepatotoxicity (moderate)” value in series [2] is reported as 0%; in [6], 3. For the same compound, the “Hepatotoxicity (granulomatous hepatitis)” value in [3] was found to be 0. In series [4], the “Hepatotoxicity (severe hepatitis)” value was 0. Moreover, in [5], the “Hepatotoxicity (chronic liver disease)” value stood at 0. The “Hepatotoxicity (choleostasis)” value in series [7] was 0. In addition, the “Hepatotoxicity (acute)” value in series [8] turned out to be 0; in series [12], 0%. For the same compound, the “Hepatotoxicity (cirrhosis)” value in [9] is 0. Moreover, in [10], the “Hepatotoxicity (steatosis)” value was determined as 0. For the same compound, the “Hepatotoxicity (malignant tumour)” value in [11] was determined as 0. Also, the “Hepatotoxicity (cytolytic)” value in [13] came out at 0. Further, the “Hepatotoxicity (association with vascular disease)” value in series [14] is 0.
Consider `COc1cc2[nH]c(C)c(CCN3CCN(c4ccccc4)CC3)c2cc1OC` [OXYPERTINE], for which the “Hepatotoxicity (benign tumour)” value in [1] is 0. In addition, the “Hepatotoxicity (moderate)” value amounted to 0% in series [2] and 1 in series [6]. Also, in series [3], the “Hepatotoxicity (granulomatous hepatitis)” value is listed as 0. For the same compound, in series [4], the “Hepatotoxicity (severe hepatitis)” value came out at 0. Besides, the “Hepatotoxicity (chronic liver disease)” value in [5] stood at 0. Also, the “Hepatotoxicity (choleostasis)” value in series [7] was determined as 0. Also, the “Hepatotoxicity (acute)” value in series [8] is listed as 0; in series [12] it was 0%. Further, the “Hepatotoxicity (cirrhosis)” value in [9] was 0. The “Hepatotoxicity (steatosis)” value in series [10] was 0. Further, in [11], the “Hepatotoxicity (malignant tumour)” value is recorded as 0. In addition, in series [13], the “Hepatotoxicity (cytolytic)” value is listed as 0. Moreover, the “Hepatotoxicity (association with vascular disease)” value in series [14] stood at 0.
